Patent US11578081B1, “Crystal form as inhibitor of ACC1 and ACC2, and preparation method therefor and use thereof” (ZHANGZHOU PIEN TZE HUANG PHARMACEUTICAL CO., LTD., priority 2019, dated 2023)
pIC50: −log10 of the molar value.

What was measured:
[1] = molecular target: human acetyl-CoA carboxylase 1 (hACC1) (Homo sapiens, UniProt Q13085); assay: In vitro ACC enzyme inhibition (ADP fluorescence), hACC1; type: biochemical; conditions: pre-incubated 15 minutes, 1 hour at room temperature
Procedure: (§1) To evaluate the ability of a test compound to inhibit acetyl-CoA carboxylase (ACC) by determining the IC50 value.
(§2) 1. Proteins: human acetyl-CoA carboxylase 1 (hACC1) and human acetyl-CoA carboxylase 2 (hACC2).
(§3) 3. Cofactors: acetyl-CoA and ATP (adenosine triphosphate)
(§4) 4. Activator: potassium citrate
(§5) 1. One-fold enzyme/substrate/cofactor was added to microwells of a well plate.
(§6) 2. According to an Acoustic technique, a solution of a compound in DMSO was added to the enzyme mixture, and the resulting mixture was pre-incubated for 15 minutes.
(§7) 3. ATP was added thereto to initiate the reaction, and the mixture was shaken uniformly.
(§8) 4. The mixture was incubated for 1 hour at room temperature.
(§9) 5. The reaction was quenched, and then incubated for additional 40 minutes.
(§10) 6. A detection reagent was added and the resulting mixture was incubated for 30 minutes.
(§11) 7. Fluorescence was tested.
(§12) 8. Data analysis was performed: based on the standard curve of ADP, the fluorescence signal was converted to the ADP product concentration and the enzyme activity was calculated. The curve was fitted using Graphpad Prism software to obtain the IC50 value.

[2] = molecular target: human acetyl-CoA carboxylase 2 (hACC2) (Homo sapiens, UniProt O00763); assay: In vitro ACC enzyme inhibition (ADP fluorescence), hACC2; type: biochemical; conditions: pre-incubated 15 minutes, 1 hour at room temperature
Procedure: as §1, §2, §3, §4, §5, §6, §7, §8, §9, §10, §11, §12

[3] = Pharmacokinetic evaluation in C57BL/6 mice; type: in vivo; conditions: mouse, plasma, male C57BL/6 mice
Procedure: To test the pharmacokinetics of the compound in C57BL/6 mice Experimental materials:
C57BL/6 mice (male, 18 to 30 g, 7 to 9 weeks old, Shanghai Lingchang Biotechnology Co., Ltd.)
A clear solution of a test compound (0.5 mg/ml, 10% DMSO, 10% polyethylene glycol stearate, and 80% water) was injected via tail veins into 4 male C57BL/6 mice (overnight fasting, 7 to 9 weeks old), at a dose of 2.0 mg/kg. A suspension of the test compound or the clear solution thereof (1 mg/ml, 10% PEG400, 90% (0.5% methylcellulose+0.2% Tween 80)) was administered by gavage to 4 male C57BL/6 mice (overnight fasting, 7 to 9 weeks old), at a dose of 10 mg/kg.
Two mice were set in a group and subjected to blood sampling alternatively, with 4 to 5 blood sampling time points per mouse. At 0.0833 h (IV group only), 0.25 h, 0.5 h, 1.0 h, 2.0 h, 4.0 h, 6.0 h, 8.0 h, and 24 h after the mice were administered intravenously or by gavage, about 30 μL of blood was collected by saphenous vein puncture and placed in an anticoagulation tube supplemented with EDTA-K2, and the plasma was separated by centrifugation. The LC-MS/MS method was used to determine the blood drug concentration, and the WinNonlin™ Version 6.3 (Pharsight, Mountain View, Calif.) pharmacokinetic software was used to calculate the relevant pharmacokinetic parameters by the non-compartmental model linear logarithmic trapezoidal method.

[4] = test system: HFD+CCl4-induced NASH mouse model; assay: In vivo pharmacodynamic study in HFD+CCl4-induced NASH mouse model; conditions: HFD+CCl4 mice; 0.5, 1, 3 mg/kg by gavage QD day 0 to day 27; reference I-181 3 mg/kg
Text: To study the effect of a compound on improving NASH and liver fibrosis in an HFD+CCl4 mouse model, with I-181 as a reference compound.
I-181 is an acetyl-CoA carboxylase inhibitor and is currently undergoing a phase II clinical study on non-alcoholic fatty liver disease (NAFLD). The HFD+CCl4 mouse model used in this study is an animal model that simulates human non-alcoholic fatty liver disease evolving into NASH. High-fat diet leads to fat accumulation and steatosis in liver cells; CCl4 (intraperitoneal injection, twice a week) simulates the “second hit” of liver injury.
The modeling for this experiment included two steps: high-fat diet feeding and CCl4 induction. Firstly, the mice were fed with high-fat diet to induce non-alcoholic fatty liver, and the mice weighing more than (>) 38 g were selected and continuously fed with high-fat diet, accompanied by the intraperitoneal injection of 25% CCl4 ([…], twice a week, for a total of four weeks). The day of starting CCl4 administration was set as day 0, and the time of starting CCl4 administration was set as hour 0. On the day of starting CCl4 administration, the administration by gavage was started, and the administration volume of each group was 5 mL/kg, once a day for 4 weeks (28 days). The injection time of CCl4 should be more than 4 hours apart from the first administration time point of the day. […]

[5] = Physical stability test of crystal form A as a solid under temperature, humidity and light (XRPD); type: physicochemical; conditions: 60° C. and 92.5% RH for 5 and 10 days; ICH visible and UV light; 60° C./75% RH 1 and 2 months; 40° C./75% RH 1, 2 and 3 months
Procedure: In order to evaluate the solid stability of a crystal form A, the influencing factors (high temperature, high humidity and light), accelerated stability conditions and intermediate stability conditions were investigated for the crystal form A.
The crystal form A was placed under high temperature (60° C., closed dish) and high humidity (room temperature, 92.5% RH (relative humidity), wrapped in a parafilm with 5 to 10 small holes) for 5 days and 10 days. According to ICH conditions (visible illuminance reached 1.2E06 Lux·hrs, and ultraviolet illuminance reached 200 W·hrs/m^2), the crystal form A was placed under visible light and ultraviolet light (the shading control group was wrapped in tin foil) in closed dish, and meanwhile, the crystal form A was placed under accelerated stability conditions (60° C./75% RH, wrapped in a parafilm with 5 to 10 small holes) for 1 and 2 months, and under intermediate stability conditions (40° C./75% RH, wrapped in a parafilm with 5 to 10 small holes) for 1, 2 and 3 months. The samples after placement were characterized by XRPD to detect the change of the crystal form.

Chain of human acetyl-CoA carboxylase 2 (hACC2) (O00763 whole entry): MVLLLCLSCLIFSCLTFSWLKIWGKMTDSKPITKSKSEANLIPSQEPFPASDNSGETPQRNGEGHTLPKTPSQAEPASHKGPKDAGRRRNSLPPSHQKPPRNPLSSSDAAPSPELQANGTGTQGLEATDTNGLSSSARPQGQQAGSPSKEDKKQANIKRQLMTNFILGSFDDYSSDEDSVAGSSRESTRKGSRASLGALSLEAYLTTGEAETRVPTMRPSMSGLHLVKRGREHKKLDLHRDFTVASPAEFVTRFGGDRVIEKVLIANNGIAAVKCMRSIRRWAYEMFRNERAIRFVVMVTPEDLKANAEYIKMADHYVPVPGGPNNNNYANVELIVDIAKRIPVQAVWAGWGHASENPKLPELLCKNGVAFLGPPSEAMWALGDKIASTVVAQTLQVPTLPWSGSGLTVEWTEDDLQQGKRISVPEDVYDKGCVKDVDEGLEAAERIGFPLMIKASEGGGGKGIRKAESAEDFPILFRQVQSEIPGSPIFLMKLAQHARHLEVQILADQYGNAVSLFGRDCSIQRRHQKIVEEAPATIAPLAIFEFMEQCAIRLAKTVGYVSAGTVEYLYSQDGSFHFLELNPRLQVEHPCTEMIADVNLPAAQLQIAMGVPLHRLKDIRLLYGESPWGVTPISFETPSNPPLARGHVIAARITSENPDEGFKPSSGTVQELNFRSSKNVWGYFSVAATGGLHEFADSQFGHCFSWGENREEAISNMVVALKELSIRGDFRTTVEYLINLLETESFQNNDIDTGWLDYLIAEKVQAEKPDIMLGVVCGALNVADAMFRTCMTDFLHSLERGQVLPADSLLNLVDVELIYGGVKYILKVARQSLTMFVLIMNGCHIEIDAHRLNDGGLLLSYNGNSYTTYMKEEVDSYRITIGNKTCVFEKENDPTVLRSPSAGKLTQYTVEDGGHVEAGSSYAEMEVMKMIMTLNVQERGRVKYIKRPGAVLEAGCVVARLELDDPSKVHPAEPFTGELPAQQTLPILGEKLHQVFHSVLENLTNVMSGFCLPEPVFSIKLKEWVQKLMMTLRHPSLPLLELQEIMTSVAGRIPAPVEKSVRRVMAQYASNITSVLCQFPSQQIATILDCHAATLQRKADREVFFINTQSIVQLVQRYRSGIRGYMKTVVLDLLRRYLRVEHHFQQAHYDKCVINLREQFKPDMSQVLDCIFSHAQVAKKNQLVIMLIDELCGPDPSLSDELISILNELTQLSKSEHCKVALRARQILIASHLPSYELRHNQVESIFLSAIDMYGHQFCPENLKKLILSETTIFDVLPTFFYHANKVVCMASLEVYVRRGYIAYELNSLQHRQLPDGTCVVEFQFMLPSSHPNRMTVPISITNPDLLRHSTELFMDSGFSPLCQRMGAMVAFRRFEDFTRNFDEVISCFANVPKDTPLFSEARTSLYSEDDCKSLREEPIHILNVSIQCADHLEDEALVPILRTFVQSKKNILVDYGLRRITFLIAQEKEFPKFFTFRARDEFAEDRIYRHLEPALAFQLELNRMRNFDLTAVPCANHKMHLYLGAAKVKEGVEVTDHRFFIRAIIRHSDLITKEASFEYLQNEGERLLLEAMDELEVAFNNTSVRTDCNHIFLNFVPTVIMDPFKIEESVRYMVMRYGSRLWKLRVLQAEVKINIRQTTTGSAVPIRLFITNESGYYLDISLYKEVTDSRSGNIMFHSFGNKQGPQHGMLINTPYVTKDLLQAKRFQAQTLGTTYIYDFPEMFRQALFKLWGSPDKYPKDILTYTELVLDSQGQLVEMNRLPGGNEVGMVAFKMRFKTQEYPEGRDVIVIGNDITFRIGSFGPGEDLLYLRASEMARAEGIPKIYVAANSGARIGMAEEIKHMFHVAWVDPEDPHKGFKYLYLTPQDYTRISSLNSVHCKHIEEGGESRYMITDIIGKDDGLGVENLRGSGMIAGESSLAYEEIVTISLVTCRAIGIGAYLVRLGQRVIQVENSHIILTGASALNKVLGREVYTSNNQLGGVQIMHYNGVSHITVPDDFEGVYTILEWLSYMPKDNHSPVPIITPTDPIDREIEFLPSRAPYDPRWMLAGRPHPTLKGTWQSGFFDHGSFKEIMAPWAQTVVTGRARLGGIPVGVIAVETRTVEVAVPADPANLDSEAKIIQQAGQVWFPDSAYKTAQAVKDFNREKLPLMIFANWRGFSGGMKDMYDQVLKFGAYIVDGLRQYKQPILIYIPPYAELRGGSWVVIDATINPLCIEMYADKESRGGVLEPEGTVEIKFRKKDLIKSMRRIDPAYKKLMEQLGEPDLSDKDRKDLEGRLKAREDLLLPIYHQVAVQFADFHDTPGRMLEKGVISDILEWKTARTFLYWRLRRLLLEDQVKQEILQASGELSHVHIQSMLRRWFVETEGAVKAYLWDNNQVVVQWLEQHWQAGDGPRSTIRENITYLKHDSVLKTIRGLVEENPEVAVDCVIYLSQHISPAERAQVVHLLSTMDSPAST

pIC50 [1]	pIC50 [2]	bioavailability ([3]; po, gavage 10 mg/kg vs IV 2.0 mg/kg, read-out: Bioavailability F)	clearance ([3]; IV 2.0 mg/kg and gavage 10 mg/kg study, route per parameter not given, read-out: Clearance rate)	AUC ([3]; IV 2.0 mg/kg and gavage 10 mg/kg study, route per parameter not given, read-out: Concentration integral AUC)	half-life ([3]; IV 2.0 mg/kg and gavage 10 mg/kg study, route per parameter not given, read-out: Half-life T1/2 (converted))	Compound	Efficacy on NAS versus reference compound [4]	Efficacy on fibrosis versus reference compound [4]	Change of the crystal form (XRPD) after placement [5]
7.85	7.99	66.7%	27.3 mL/min/kg	7.21 µM·h	1.85 h	COc1ccccc1[C@H](Cn1nc(C(C)(C)C(=O)O)c(=O)c2c(C)c(-c3ncco3)sc21)OC1CCOCC1 [Compound of formula (I)]	achieves the same efficacy as the reference compound at a higher dose	achieves the same efficacy as the reference compound at a higher dose	
						COc1ccccc1[C@H](Cn1nc(C(C)(C)C(=O)O)c(=O)c2c(C)c(-c3ncco3)sc21)OC1CCOCC1 [crystal form A]			remains unchanged under all stability conditions
